Experimental data from ChEMBL document CHEMBL1201862, “PubChem BioAssay data set” (2004).
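Cells were grown in 96-well plates and exposed to each compound for 48 hours at five concentrations; endpoints were interpolated linearly between bracketing concentrations, or set to the highest concentration if not reached. GI50: concentration for 50% inhibition of growth.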 Active and inactive are the calls of the source. No stated cut-off is given here; in the data, active = GI50 up to about 1.1 µM and inactive = higher.

Legend:
Test in all cases: growth of human tumour cells (NCI), 48 h
SK-MEL-2 = tested on: SK-MEL-2
NCI-H226 = tested on: NCI-H226
MCF7 = tested on: MCF7
OVCAR-4 = tested on: OVCAR-4
DU-145 = tested on: DU-145
UACC-62 = tested on: UACC-62
RPMI-8226 = tested on: RPMI-8226
SK-MEL-5 = tested on: SK-MEL-5
K562 = tested on: K562
CAKI-1 = tested on: CAKI-1
TK-10 = tested on: TK-10
SW-620 = tested on: SW-620
M14 = tested on: M14
SF-539 = tested on: SF-539
SF-295 = tested on: SF-295
NCI-H23 = tested on: NCI-H23
SF-268 = tested on: SF-268
SN12C = tested on: SN12C

Measured: GI50

CCOC(=O)c1csc(NC(=O)CCN2CCN(C)CC2)n1
inactive: SK-MEL-2 > 100 µM | NCI-H226 > 100 µM | MCF7 89.3 µM | OVCAR-4 > 100 µM | DU-145 > 100 µM | UACC-62 > 100 µM | RPMI-8226 55.3 µM | SK-MEL-5 > 100 µM | K562 69.8 µM | CAKI-1 64.1 µM | TK-10 > 100 µM | SW-620 43.2 µM | M14 > 100 µM | SF-539 > 100 µM | SF-295 > 100 µM | NCI-H23 > 100 µM

CCOC(=O)c1csc(NC(=O)CN2CCCC2)n1
inactive: SF-268 > 100 µM | SK-MEL-2 > 100 µM | NCI-H226 > 100 µM | MCF7 > 100 µM | OVCAR-4 > 100 µM | DU-145 > 100 µM | UACC-62 > 100 µM | RPMI-8226 > 100 µM | SK-MEL-5 > 100 µM | K562 > 100 µM | CAKI-1 > 100 µM | TK-10 > 100 µM | SW-620 > 100 µM | M14 > 100 µM | SF-539 > 100 µM | SF-295 > 100 µM | NCI-H23 > 100 µM

c1ccc2c(c1)c1c(n2CCOCCCN2CCCCC2)CCCC1
inactive: SF-268 28.2 µM | SK-MEL-2 18.7 µM | SN12C 13.6 µM | NCI-H226 16.3 µM | MCF7 16.1 µM | OVCAR-4 12.5 µM | DU-145 44.7 µM | RPMI-8226 31.1 µM | SK-MEL-5 20.6 µM | K562 14 µM | CAKI-1 18 µM | TK-10 16.4 µM | SW-620 19.5 µM | M14 27.9 µM | SF-539 15.7 µM | NCI-H23 17.6 µM

Cn1c(=O)n2n(c1=O)C(C)(C13CC4CC(CC(C4)C1)C3)C13CC4CC(CC1C4)CC23 (stereo unspecified)
inactive: SF-268 > 100 µM | SK-MEL-2 > 100 µM | SN12C > 100 µM | NCI-H226 > 100 µM | MCF7 > 100 µM | DU-145 > 100 µM | UACC-62 > 100 µM | RPMI-8226 > 100 µM | SK-MEL-5 > 100 µM | K562 87.1 µM | CAKI-1 > 100 µM | TK-10 > 100 µM | SW-620 > 100 µM | M14 > 100 µM | SF-539 > 100 µM | SF-295 > 100 µM | NCI-H23 > 100 µM

COC12OC3(C4OC41)C(C(=O)O[C@H]3CO[Si](C)(C)C(C)(C)C)C2C(=O)Oc1ccccc1 (stereo partly specified)
inactive: SF-268 > 100 µM | SK-MEL-2 > 100 µM | SN12C > 100 µM | NCI-H226 > 100 µM | MCF7 > 100 µM | OVCAR-4 > 100 µM | DU-145 > 100 µM | UACC-62 > 100 µM | RPMI-8226 91 µM | SK-MEL-5 > 100 µM | K562 > 100 µM | CAKI-1 > 100 µM | TK-10 > 100 µM | SW-620 > 100 µM | M14 > 100 µM | SF-295 > 100 µM | NCI-H23 > 100 µM

CC(C)CC1c2[nH]c3ccccc3c2C[C@H]2C(=O)NC(COC(C)(C)C)C(=O)N12 (stereo partly specified)
inactive: SF-268 23.6 µM | SK-MEL-2 19.9 µM | SN12C 21.2 µM | NCI-H226 33.2 µM | MCF7 31.6 µM | OVCAR-4 30.5 µM | DU-145 34.5 µM | UACC-62 18.2 µM | RPMI-8226 23.9 µM | SK-MEL-5 21.8 µM | K562 31.7 µM | CAKI-1 28.2 µM | TK-10 23 µM | SW-620 31 µM | M14 20.8 µM | SF-295 17.3 µM | NCI-H23 28.7 µM

O=C1OCC=C1COC1OC(CO)C(O)C(O)C1O (stereo unspecified)
inactive: SF-268 > 100 µM | SK-MEL-2 > 100 µM | SN12C > 100 µM | NCI-H226 > 100 µM | MCF7 > 100 µM | OVCAR-4 > 100 µM | DU-145 > 100 µM | RPMI-8226 > 100 µM | SK-MEL-5 > 100 µM | K562 > 100 µM | CAKI-1 > 100 µM | TK-10 > 100 µM | SW-620 > 100 µM | M14 > 100 µM | SF-539 > 100 µM | SF-295 > 100 µM | NCI-H23 > 100 µM

COc1ccc(-c2c(-c3ccccc3)c(C)c3ccccn23)cc1
inactive: SK-MEL-2 33 µM | SN12C > 100 µM | NCI-H226 > 100 µM | MCF7 57.7 µM | OVCAR-4 > 100 µM | DU-145 > 100 µM | UACC-62 > 100 µM | RPMI-8226 47.6 µM | SK-MEL-5 77.8 µM | K562 50 µM | CAKI-1 > 100 µM | TK-10 > 100 µM | SW-620 58.9 µM | M14 > 100 µM | SF-539 > 100 µM | SF-295 > 100 µM | NCI-H23 > 100 µM

Cc1cc2nc3c(C(O)CO)nn(-c4ccccc4)c3nc2cc1C (stereo unspecified)
inactive: SF-268 23.7 µM | SK-MEL-2 21.4 µM | SN12C 13.8 µM | NCI-H226 30.6 µM | MCF7 20.2 µM | OVCAR-4 20.2 µM | DU-145 15.4 µM | RPMI-8226 6.21 µM | SK-MEL-5 30.9 µM | K562 12.9 µM | CAKI-1 15.8 µM | TK-10 14 µM | SW-620 20.5 µM | M14 31.3 µM | SF-539 20.7 µM | SF-295 15.7 µM | NCI-H23 23 µM
